According to US20040151761A1, “Methods and compositions utilizing astaxanthin” (priority 2003, published 2004):
“Also recorded” adds a separate entry of the source.

How the values were obtained:
[1] = test system: peripheral blood mononuclear cell (PBMC); experiment: Lymphoproliferation in dogs (whole blood cultures); format: in vivo, dog
Procedure: Lyniphoproliferation. The proliferation response of peripheral blood mononuclear cell (PBMC) to PHA (2 and 10 mg/L final concentration), concanavalin A (Con A; 1 and 5 mg/L), and pokeweed mitogen (PWM; 0.25 and 1.25 mg/L) was assessed on week 0, 6, 12 and 16 using whole blood cultures (Chew et al., 2000). Whole blood was cultured in order to mimic in vivo conditions.

[2] = test system: Canine thyroid adenocarcinoma cells (target cells); experiment: Natural killer cell cytotoxic activity in dogs; format: in vivo, dog
Procedure: Natural killer cell cytotoxic activity. Canine thyroid adenocarcinoma cells (target cells) were resuspended to 2×10^5 cells/mL in Dulbecco's Modified Eagles Medium (Sigma, St. Louis, Mo.) containing 100 mL/L fetal bovine serum, 100 U/mL penicillin, and […] streptomycin sulfate. Ficol-separated PBMC (effector cells) were resuspended to 1×10^6 and 2×10^6 cells/mL and 100 microliters added to the target cells in 96-well flat-bottom plates to provide effector:taiget ratios of 5:1 and 10:1. After incubating for 8 h, 20 microliters (5 g/L) of MTT were added and incubated for 4 hours. The supernatant was removed and the formazan resuspended in 100 microliters isopropanol. Optical density was measured at 550 nm and the percent of specific cytotoxicity calculated as follows:
% Specific cytotoxicity=1−(ODeffector+target−ODeffector)/ODtarget×100.

[3] = Body weight of cats fed astaxanthin; format: in vivo, cat
Procedure: Female domestic short hair cats (8 to 9 months old; 3.2±0.04 kg body weight; Liberty Farms, Waverly, N.Y.) were randomly assigned (n=14/diet) to be fed 0, 1, 5, or 10 mg astaxanthin (109 g astaxanthin/kg oleoresin concentrate from Haematococcus pluvialis, astraZanthin™, La Haye Laboratories, Redmond, Wash.) daily (based on an average intake of 90 g food/day) for 12 weeks. Astaxanthin was incorporated into a commercial basal diet (The Iams Co., Lewisburg, Ohio.) and fed ad libitum. The diet composition was as follows (g/kg): 63.1 moisture, 350.6 protein, 62.7 ash, 213.6 fat, 10.0 Ca, 7.6 P, and 7.1 crude fiber, 21,707 kJ/kg gross energy; the n-6:n-3 fatty acid ratio was 9.9. Cats were housed in a temperature (20 to 22° C.) and light-controlled (14 hour light) facility and body weights were determined at weeks 0, 4, 8 and 12. Blood was collected at week 0 and 8 to assess immune function. To assess the dietary effects of astaxanthin on immune response after an antigenic challenge, all cats were vaccinated (Felocell™, Pfizer, N.Y.) two times (weeks 8 and 10) and blood was collected at week 12 to measure the same immune parameters.

[4] = test system: Cutaneous delayed-type hypersensitivity (DTH); experiment: Delayed-type hypersensitivity (skin induration) in cats; format: in vivo, cat
[5] = Hematology in cats; design: species or system cat; details: in vivo
Procedure: Hematology. Hematology parameters (white blood cell, RBC and platelet counts, lymphocyte, monocyte and granulocyte differential counts, hematocrit, hemoglobin, and mean corpuscular volume, hemoglobin and hemoglobin concentration, and platelet volume) were measured using a hematology analyzer (Vet ABC-Hematology Analyzer, Heska, Fort Collins, Colo.).

[6] = compared with other antioxidants (Naguib, 2000; Miki, 1991); cited from earlier work
[7] = test system: humoral and cell-mediated immune responses; details: cited from earlier work
[8] = test system: mammary and bladder tumor; details: cited from earlier work

CC1=C(/C=C/C(C)=C/C=C/C(C)=C/C=C/C=C(C)/C=C/C=C(C)/C=C/C2=C(C)C(=O)C(O)CC2(C)C)C(C)(C)CC(O)C1=O (stereo not drawn) [astaxanthin, 3,3′-dihydroxy-beta, beta-carotene-4,4′-dione]
con A-induced PBMC proliferation ([1]; 20 mg, week 12): higher con A-induced PBMC proliferation than un-supplemented dogs; also recorded: highest blastogenic response
PHA-stimulated PBMC proliferation ([1]; all time periods): did not influence
PWM-stimulated PBMC proliferation ([1]; all time periods): did not influence
NK cell activity ([2]; week 6): dose-dependent increase in NK cell activity
NK cell activity ([2]; week 6, dogs fed 30 mg): significantly higher than control
NK cell cytotoxic activity ([2]; week 12, 20 mg): higher NK cell cytotoxic activity than control
NK cell cytotoxic activity ([2]; week 16 (trend as week 12: 20 mg higher, 40 mg not)): same trend continued through week 16
body weight between treatments ([3]; cats fed 0, 1, 5 or 10 mg daily, 12 weeks): not significantly different between treatment
body weight averaged ([3]; week 12, average over all diets): 3.22 ± 0.06 kg
DTH response with dietary astaxanthin ([4]; after vaccination, wk 12): somewhat diminished
skin induration response to vaccine ([4]; wk 8, 72 h post-injection, cats fed 10 mg): significant enhancement
DTH response to con A ([4]; wk 8, cats fed 5 or 10 mg): higher DTH response to con A at 24 and 48 h
time of maximal skin induration response to vaccine ([4]; wk 8, post-injection): 72 h
DTH response to nonspecific (con A) antigenic challenge ([4]; wk 8, pre-vaccination): stimulated DTH response; also recorded: increased DTH response
DTH response to specific (vaccine) antigenic challenge ([4]; wk 8, pre-vaccination): stimulated DTH response; also recorded: increased DTH response
DTH response to con A ([4]; wk 12): significant only with 1 mg astaxanthin
DTH response to vaccine ([4]; wk 12, cats fed 10 mg): still showed enhanced DTH response to vaccine, but at 24 h after injection
blood hematology parameters [5]: generally did not influence
hematology values relative to normal range [5]: within the normal range
antioxidant activity against certain reactive oxygen species [6]: higher than that of beta-carotene, canthaxanthin, lutein, alpha-tocopherol, tunaxanthin, and zeaxanthin
cell-mediated immune response ([7]; rodents (Chew et al., 1999b)): enhanced
T cell-mediated antibody production ([7]; rodents (Jyonouchi et al., 1994)): increased T cell-mediated antibody production
humoral immune response ([7]; rodents (Jyonouchi et al., 1995)): enhanced
mammary tumor growth ([8]; rodents (Chew et al., 1999a)): inhibited
bladder tumor growth ([8]; rodents (Tanaka et al., 1994)): inhibited
